Reference: ChEMBL document CHEMBL4680197, “Further exploration of DVD-445 as a lead thioredoxin reductase (TrxR) inhibitor for cancer therapy: Optimization of potency and evaluation of anticancer potential” (Eur J Med Chem, 2020)
pIC50: −log10 of the molar value. Calls of active or inactive are those of the source. No cut-off for these calls is given here.

Legend:
[1] = molecular target: T1, ATP-dependent translocase ABCB1 (Homo sapiens, UniProt P08183); assay: Inhibition of P-gp in human U87-TxR cells assessed as increase in Rho123 accumulation at 5 uM measured after 30 mins by flow cytometry; format: cell-based; conditions: 0.5 h
T1 sequence (P08183 whole entry): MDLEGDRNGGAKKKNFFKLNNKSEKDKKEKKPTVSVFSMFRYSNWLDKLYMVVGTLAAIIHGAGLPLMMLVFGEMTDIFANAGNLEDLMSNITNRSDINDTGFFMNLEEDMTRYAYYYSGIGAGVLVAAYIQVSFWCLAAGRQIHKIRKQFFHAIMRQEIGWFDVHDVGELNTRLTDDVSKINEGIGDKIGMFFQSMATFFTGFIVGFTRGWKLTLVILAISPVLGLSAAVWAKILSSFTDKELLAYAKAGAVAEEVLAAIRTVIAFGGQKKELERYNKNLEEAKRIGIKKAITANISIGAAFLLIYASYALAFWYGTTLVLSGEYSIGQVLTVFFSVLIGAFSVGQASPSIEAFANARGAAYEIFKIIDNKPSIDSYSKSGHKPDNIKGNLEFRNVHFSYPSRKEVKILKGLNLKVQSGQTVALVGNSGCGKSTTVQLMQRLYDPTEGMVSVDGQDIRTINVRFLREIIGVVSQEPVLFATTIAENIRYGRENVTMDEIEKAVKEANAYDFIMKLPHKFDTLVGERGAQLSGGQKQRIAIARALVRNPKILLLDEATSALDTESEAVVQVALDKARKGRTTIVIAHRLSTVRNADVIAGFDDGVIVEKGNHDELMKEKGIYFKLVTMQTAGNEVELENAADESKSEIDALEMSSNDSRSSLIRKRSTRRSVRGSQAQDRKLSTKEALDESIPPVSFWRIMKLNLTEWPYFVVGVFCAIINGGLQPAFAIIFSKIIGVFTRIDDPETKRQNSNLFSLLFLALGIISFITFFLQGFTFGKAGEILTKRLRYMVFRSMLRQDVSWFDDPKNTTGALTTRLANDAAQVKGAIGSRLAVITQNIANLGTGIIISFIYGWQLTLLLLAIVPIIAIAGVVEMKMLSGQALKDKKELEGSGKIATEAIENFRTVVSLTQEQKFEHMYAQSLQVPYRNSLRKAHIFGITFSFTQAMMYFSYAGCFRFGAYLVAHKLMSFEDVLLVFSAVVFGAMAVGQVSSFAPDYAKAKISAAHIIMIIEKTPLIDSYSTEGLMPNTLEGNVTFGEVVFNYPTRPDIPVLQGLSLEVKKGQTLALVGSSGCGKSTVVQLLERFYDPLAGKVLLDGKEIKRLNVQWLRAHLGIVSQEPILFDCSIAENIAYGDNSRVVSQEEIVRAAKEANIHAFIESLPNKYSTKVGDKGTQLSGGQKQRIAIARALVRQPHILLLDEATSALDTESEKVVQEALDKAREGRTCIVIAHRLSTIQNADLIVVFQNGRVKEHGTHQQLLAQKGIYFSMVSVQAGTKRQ

[2] = molecular target: T2, Thioredoxin reductase 1, cytoplasmic (Rattus norvegicus, UniProt O89049); assay: Inhibition of recombinant rat TrxR1 using DTNB as substrate preincubated for 15 mins followed by substrate addition and measured for 20 mins by colorimetry
T2 sequence (O89049 whole entry): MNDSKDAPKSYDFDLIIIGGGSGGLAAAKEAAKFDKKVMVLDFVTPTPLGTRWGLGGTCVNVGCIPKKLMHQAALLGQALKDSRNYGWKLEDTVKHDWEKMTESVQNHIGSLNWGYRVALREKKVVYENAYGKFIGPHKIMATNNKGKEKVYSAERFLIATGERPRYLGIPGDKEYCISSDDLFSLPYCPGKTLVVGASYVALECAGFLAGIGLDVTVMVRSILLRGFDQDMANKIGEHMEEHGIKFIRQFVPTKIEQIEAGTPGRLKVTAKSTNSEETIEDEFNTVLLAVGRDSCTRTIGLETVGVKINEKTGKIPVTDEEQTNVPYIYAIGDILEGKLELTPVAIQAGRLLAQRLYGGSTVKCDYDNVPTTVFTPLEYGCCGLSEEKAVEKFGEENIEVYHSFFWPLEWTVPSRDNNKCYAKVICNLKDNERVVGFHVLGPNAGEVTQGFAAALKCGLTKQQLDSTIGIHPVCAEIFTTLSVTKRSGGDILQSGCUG

[3] = molecular target: T3, Thioredoxin reductase 1, cytoplasmic (Homo sapiens) (UniProt Q16881); assay: Inhibition of TrxR1 in human U87 cells assessed as increase in RONS level at 10 uM measured after 24 hrs by dihydrorhodamine 123 dye based flow cytometry; format: cell-based
T3 sequence (whole entry): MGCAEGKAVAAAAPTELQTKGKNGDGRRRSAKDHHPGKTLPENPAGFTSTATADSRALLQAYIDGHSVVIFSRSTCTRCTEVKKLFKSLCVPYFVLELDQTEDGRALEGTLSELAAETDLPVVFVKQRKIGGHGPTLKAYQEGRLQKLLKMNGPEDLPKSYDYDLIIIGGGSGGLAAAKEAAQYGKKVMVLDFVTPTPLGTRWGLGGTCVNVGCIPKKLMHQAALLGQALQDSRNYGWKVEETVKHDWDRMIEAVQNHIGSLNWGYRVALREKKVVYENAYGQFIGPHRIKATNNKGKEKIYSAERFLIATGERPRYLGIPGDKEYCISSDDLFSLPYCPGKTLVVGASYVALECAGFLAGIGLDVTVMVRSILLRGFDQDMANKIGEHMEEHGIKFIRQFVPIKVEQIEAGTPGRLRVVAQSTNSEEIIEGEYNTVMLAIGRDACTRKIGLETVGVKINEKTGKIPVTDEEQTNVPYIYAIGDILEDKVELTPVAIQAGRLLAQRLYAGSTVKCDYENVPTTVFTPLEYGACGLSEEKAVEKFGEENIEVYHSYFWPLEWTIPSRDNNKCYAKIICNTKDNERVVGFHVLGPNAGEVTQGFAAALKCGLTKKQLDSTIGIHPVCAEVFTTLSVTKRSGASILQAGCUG

[4] = Cytotoxicity against human U87-TxR cells assessed as reduction in cell viability incubated for 72 hrs by MTT assay; format: functional, cell-based
SH-SY5Y = assay: Inhibition of TrxR in human SH-SY5Y cell lysates at 5 uM using DTNB as substrate preincubated for 15 mins followed by substrate addition and measured for 20 mins by colorimetry relative to control; format: subcellular; conditions: time 35.0 min
MRC5 = assay: Cytotoxicity against human MRC5 cells assessed as reduction in cell viability incubated for 72 hrs by MTT assay; format: cell-based; conditions: MRC5, 72 h
[5] = molecular target: T1, ATP-dependent translocase ABCB1; assay: Inhibition of P-gp in human U87-TxR cells assessed as increase in Rho123 accumulation at 2.5 uM measured after 72 hrs by flow cytometry; format: cell-based
U-87 MG = assay: Cytotoxicity against human U87 cells assessed as reduction in cell viability incubated for 72 hrs by MTT assay; format: functional, cell-based, U-87MG ATCC
[6] = Selectivity index, ratio of IC50 for human MRC5 cells to IC50 for human U87 cells; format: toxicity; conditions: MRC5 cells versus U87 cells, read-out: Ratio IC50
[7] = Selectivity index, ratio of IC50 for human MRC5 cells to IC50 for human U87-TxR cells; format: toxicity; conditions: MRC5 cells versus U87-TxR cells, read-out: Ratio IC50
[8] = molecular target: T3, Thioredoxin reductase 1, cytoplasmic (Homo sapiens); assay: Inhibition of TrxR1 in human U87-TxR cells assessed as increase in RONS level at 10 uM measured after 24 hrs by dihydrorhodamine 123 dye based flow cytometry; format: cell-based
[9] = molecular target: T1, ATP-dependent translocase ABCB1; assay: Inhibition of P-gp in human U87-TxR cells assessed as increase in Rho123 accumulation at 50 nM measured after 30 mins by flow cytometry; format: cell-based; conditions: 0.5 h, 0.05 µM
[10] = molecular target: T1, ATP-dependent translocase ABCB1; assay: Inhibition of P-gp in human U87-TxR cells assessed as increase in Rho123 accumulation measured after 30 mins by flow cytometry; format: cell-based; conditions: 0.5 h

| Compound | inhibition (INH) [1] | pIC50 [2] | inhibition [3] | pIC50 [4] | inhibition (SH-SY5Y) [%] | pIC50 (MRC5) | inhibition (INH) [5] | pIC50 (U-87 MG) | selectivity ratio [6] | selectivity ratio [7] | inhibition [8] | inhibition (INH) [9] | inhibition (INH) [10] |
| --- | --- | --- | --- | --- | --- | --- | --- | --- | --- | --- | --- | --- | --- |
| CN(CCOC(=O)/C=C/C(=O)c1ccc(F)cc1)C(C(=O)NC(C)(C)C)c1ccc(F)c(F)c1 (configuration not stated) | Active | 6.72 | Active | 5.11 | 84.6 | 4.75 | Not Active | 5.15 | 2.4 | 2.4 |  |  |  |
| Cc1ccc(C(=O)/C=C/C(=O)OCCN(C)C(C(=O)NC2CCCCC2)c2ccc(F)cc2)cc1 (configuration not stated) | Active | 4.43 | Active | 4.93 | 68.8 | 4.85 | Not Active | 5.23 | 1.6 | 1.6 | Active |  |  |
| Cc1ccc(C(C(=O)NC(C)(C)C)N(C)CCOC(=O)/C=C/C(=O)c2ccc(F)cc2)cc1 (configuration not stated) | Active | 6.23 | Active | 5.21 | 82.7 | 4.85 | Not Active | 5.16 | 2.2 | 2.2 | Active |  |  |
| CCN(CCOC(=O)/C=C/C(=O)c1ccc(F)cc1)C(C(=O)NC(C)(C)C)c1cccc(C)c1 (configuration not stated) | Active | 5.47 | Active | 5.22 | 50.2 | 4.89 | Not Active | 5.15 | 2 | 2 | Active |  |  |
| COc1cc2c(cc1OC)CN(CCc1ccc(NC(=O)c3cc(OC)c(OC)cc3NC(=O)c3cnc4ccccc4c3)cc1)CC2 [TARIQUIDAR] |  |  |  |  |  |  |  |  |  |  |  | Active |  |
| Cc1cccc(C(C(=O)NC(C)(C)C)N(C)CCOC(=O)/C=C/C(=O)c2ccc(F)cc2)c1 (configuration not stated) | Active | 5.82 | Active | 5.08 | 33 | 4.87 | Not Active | 5.10 | 1.6 | 1.6 | Active |  |  |
| CN(CCOC(=O)/C=C/C(=O)c1ccc(F)cc1)C(C(=O)NC(C)(C)C)c1ccccc1F (configuration not stated) | Active | 5.30 |  | 5.21 | 64 | 4.83 | Not Active | 5.08 | 2 | 2 | Active |  |  |
| CN(CCOC(=O)/C=C/C(=O)c1ccc(F)cc1)C(C(=O)NC(C)(C)C)c1ccc(F)cc1 (configuration not stated) |  |  |  | 5.07 |  | 4.93 |  | 5.05 | 1.4 | 1.4 | Active |  | Dose-dependent effect |
| Cc1cccc(C(C(=O)NC2CCCCC2)N(C)CCOC(=O)/C=C/C(=O)c2ccc(F)cc2)c1 (configuration not stated) | Active | 5.49 |  | 5.11 | 53 | 4.85 | Active | 5.15 | 1.9 | 1.9 | Active |  |  |
